Measured values as given in US8541373B2, “BChE albumin fusions for the treatment of cocaine abuse” (priority 2009, dated 2013).
Several values for one entry are separate records, joined by “and”; a condition that tells them apart may be missing. Identical values can stand only once.

Test system: cocaine
Assay: Plasma cocaine, ecgonine methyl ester and benzoylecgonine after IV cocaine post-AlbuBChE
Format: in vivo, Squirrel monkeys
Conditions: for Benzoylecgonine Plasma Concentration, Mean / Cocaine Plasma Concentration, Mean / Ecgonine methyl ester plasma concentration (mean): mean n=3
Method: Blood was placed into K2EDTA blood collection tubes with esterase inhibitor (diisopropylfluorophosphate (DFP). Tubes were inverted several times and placed on wet ice upon collection. Samples were centrifuged at 2-8° C. within 45 minutes of collection. The resultant plasma will be recovered and a single 200 μL aliquot of plasma was placed into polypropylene tubes. Plasma samples was frozen over dry ice and stored at approximately −70° C.
The bioanalytical method measured the plasma concentration of cocaine and two of its metabolites: ecgonine methyl ester and benzoylecgonine. Cocaine metabolic pathway is shown in FIG. 9, ecgonine methyl ester metabolite is formed directly from cocaine through the butrylcholine esterase enzyme. As such, this metabolite can be predicted to increase following AlbuBChE administration.
The blood level data were analyzed separately for each metabolite and time point (5 or 30 min). A one-way analysis-of-variance (ANOVA) was performed with follow-up Dunnett tests using the results of monkeys treated with vehicle as the control. The self-administration data were analyzed separately for response rate or injections following either vehicle treatment or AlbuBChE treatment. Control data were included in the analysis by taking the average of the last 3 days for the immediately preceding baseline condition. A within subjects ANOVA was then performed with follow-up tests contrasting days following vehicle or AlbuBChE with the control. For the reinstatement tests, a two-way ANOVA was performed for both response rate and injections, with time post vehicle or AlbuBChE as the within-subjects factor and pretreatment (vehicle or AlbuBChE) as the between subjects factor. Follow-up contrast compared vehicle and AlbuBChE at each time point.

[1] = 5 min after cocaine 1 mg/kg IV given 2 hr post-AlbuBChE 5 mg/kg IM, individual monkeys 547, 3434, 53B
[2] = 5 min after cocaine 1 mg/kg IV given 72 hr post-AlbuBChE 5 mg/kg IM, individual monkeys
[3] = 5 min after cocaine 1 mg/kg IV given 96 hr post-AlbuBChE 5 mg/kg IM, individual monkeys
[4] = 5 min after cocaine 1 mg/kg IV, 2 hr post-AlbuBChE 5 mg/kg IM
[5] = 5 min after cocaine 1 mg/kg IV, 72 hr post-AlbuBChE 5 mg/kg IM
[6] = 5 min after cocaine 1 mg/kg IV, 96 hr post-AlbuBChE 5 mg/kg IM
[7] = 30 min after cocaine 1 mg/kg IV given 2 hr post-AlbuBChE 5 mg/kg IM, individual monkeys
[8] = 30 min after cocaine 1 mg/kg IV given 72 hr post-AlbuBChE 5 mg/kg IM, individual monkeys
[9] = 30 min after cocaine 1 mg/kg IV given 96 hr post-AlbuBChE 5 mg/kg IM, individual monkeys
[10] = 30 min after cocaine 1 mg/kg IV, 2 hr post-AlbuBChE 5 mg/kg IM
[11] = 30 min after cocaine 1 mg/kg IV, 72 hr post-AlbuBChE 5 mg/kg IM
[12] = 30 min after cocaine 1 mg/kg IV, 96 hr post-AlbuBChE 5 mg/kg IM

AlbuBChE
Ecgonine methyl ester concentration increase over control (5 mg/kg IM, 2 hr post-AlbuBChE, 5 min after cocaine): ~40 fold
Cocaine concentration relative to control (5 mg/kg IM, cocaine 1 mg/kg IV 96 hr post-AlbuBChE): 60 % of control
Benzoylecgonine Plasma Concentration [1]: 4.83 ng/mL and 23.3 ng/mL and 20.1 ng/mL
Cocaine Plasma Concentration [1]: 0.575 ng/mL and 20.0 ng/mL and 22.4 ng/mL
Ecgonine Methyl Ester Plasma Concentration [1]: 109 ng/mL and 417 ng/mL and 333 ng/mL
Benzoylecgonine Plasma Concentration [2]: 9.93 ng/mL and 41.7 ng/mL and 28.8 ng/mL
Cocaine Plasma Concentration [2]: 41.3 ng/mL and 176 ng/mL and 104 ng/mL
Ecgonine Methyl Ester Plasma Concentration [2]: 29.3 ng/mL and 101 ng/mL and 73.2 ng/mL
Benzoylecgonine Plasma Concentration [3]: 15.5 ng/mL and 36.2 ng/mL and 26.3 ng/mL
Cocaine Plasma Concentration [3]: 97.9 ng/mL and 191 ng/mL and 112 ng/mL
Ecgonine Methyl Ester Plasma Concentration [3]: 40.5 ng/mL and 72.3 ng/mL and 35.8 ng/mL
Benzoylecgonine Plasma Concentration, Mean [4]: 16.1 ng/mL
Cocaine Plasma Concentration, Mean [4]: 14.3 ng/mL
Ecgonine methyl ester plasma concentration (mean) [4]: 286 ng/mL
Benzoylecgonine Plasma Concentration, Mean [5]: 26.8 ng/mL
Cocaine Plasma Concentration, Mean [5]: 107 ng/mL
Ecgonine methyl ester plasma concentration (mean) [5]: 67.8 ng/mL
Benzoylecgonine Plasma Concentration, Mean [6]: 26.0 ng/mL
Cocaine Plasma Concentration, Mean [6]: 134 ng/mL
Ecgonine methyl ester plasma concentration (mean) [6]: 49.5 ng/mL
Benzoylecgonine Plasma Concentration [7]: 11.1 ng/mL and 20.8 ng/mL and 10.9 ng/mL
Cocaine Plasma Concentration [7]: 0.581 ng/mL and 0.115 ng/mL and 0.261 ng/mL
Ecgonine Methyl Ester Plasma Concentration [7]: 252 ng/mL and 314 ng/mL and 218 ng/mL
Benzoylecgonine Plasma Concentration [8]: 20.7 ng/mL and 33.4 ng/mL and 21 ng/mL
Cocaine Plasma Concentration [8]: 65.0 ng/mL and 57.9 ng/mL and 44.9 ng/mL
Ecgonine Methyl Ester Plasma Concentration [8]: 61.3 ng/mL and 112 ng/mL and 81.7 ng/mL
Benzoylecgonine Plasma Concentration [9]: 18.9 ng/mL and 37.6 ng/mL and 21.5 ng/mL
Cocaine Plasma Concentration [9]: 62.9 ng/mL and 75.6 ng/mL and 67.1 ng/mL
Ecgonine Methyl Ester Plasma Concentration [9]: 25.7 ng/mL and 76.8 ng/mL and 45.2 ng/mL
Benzoylecgonine Plasma Concentration, Mean [10]: 14.3 ng/mL
Cocaine Plasma Concentration, Mean [10]: 0.319 ng/mL
Ecgonine methyl ester plasma concentration (mean) [10]: 261 ng/mL
Benzoylecgonine Plasma Concentration, Mean [11]: 25.0 ng/mL
Cocaine Plasma Concentration, Mean [11]: 55.9 ng/mL
Ecgonine methyl ester plasma concentration (mean) [11]: 85.0 ng/mL
Benzoylecgonine Plasma Concentration, Mean [12]: 26.0 ng/mL
Cocaine Plasma Concentration, Mean [12]: 68.5 ng/mL
Ecgonine methyl ester plasma concentration (mean) [12]: 49.2 ng/mL
Cocaine blood levels vs vehicle control (2 hours following AlbuBChE, 5- and 30-min time points): significantly reduced
Blood levels of BZ vs vehicle control (2 hr following AlbuBChE): not significant
Blood levels of EME vs vehicle control (2 hr following AlbuBChE, 5- and 30 min time point): elevated
Cocaine blood levels vs vehicle control (72 hours following AlbuBChE, 30-min post cocaine): significantly below control levels
Blood levels of EME vs vehicle control (72 hours following AlbuBChE, 30 min time point): significantly elevated
Cocaine blood levels vs vehicle control (96 hours following AlbuBChE, 5 or 30 min time point): not significant
Duration of decreased amount of cocaine in the blood (Squirrel monkeys, 5 mg/kg): at least 72 hours
